Measured values reported in patent US20080241870A1, “Composition For Creating an Artificial Bone Marrow Like Environment and Use Thereof” (NATIONAL CENTRE FOR CELL SCINECES, priority 2005, published 2008).

Tests used:
Format in all cases: cell-based, human
αiib:β3 integrin = test: engraftment: HCFA of CD34+ SPC attached to ABME formed via αiib:β3 integrin signaling; conditions: FIG. 7
Experimental: The mesenchyme cells (5×10^4 cells per well in a 24 well dish) were grown in IMDM plus 20% fetal bovine serum until they were nearly confluent. The medium was removed and was washed 2× with PBS. ABME was prepared by using a chemical hematomodulator [Biotin-Ser-Gly-Ser-Gly-Cys*-Asn-Pro-Arg-Gly-Asp (Tyr-OMe)Arg-Cys*Lys (cyclised between C*-C*), 10 microgram ml^−1, 18 hours] that selectively activated αiib:β3 integrin signaling in the mesenchyme cells. The ABME formed was washed 2× with PBS and was covered with 0.2 ml of a suspension of CD34^+ SPC cells (10^5 ml−1) for 1 hour, in the presence or absence of another peptide [1-Adamantaneacetyl-Cys*Gly-Arg-Gly-Asp-Ser-Pro-C(Cyclised between Cys*-Cys*)]which inhibited the interactions of αiib:β3 integrin. At the end of incubation, the cells were washed 2× with PBS and were processed for hematopoietic colony formation assays (HCFA). […] More specifically, the quantities of hematopoietic growth factors used routinely in HCFA were, 2 International Units per milliliter (2 I.U.ml^−1) of Erythropoietin (EPO), 50 nanogram per milliliter (50 ng.ml^−1) of Stem Cell Factor (SCF) and 20 nanogram per milliliter (20 ng/ml^−1) each of Granulocyte-Macrophage-Colony Stimulating Factor (GM-CSF), Granulocyte-Colony Stimulating Factor (G-CSF), Interleukin-1 beta (IL-1β), Interleukin-3 (IL-3) and Interleukin-6 (IL-6). […]

SPC = test: priming of SPC before contact with ABME, colony formation; conditions: for colony/blood cell formation after priming SPC: SPC primed with agent
Excerpt: Experiments were directed to determine if the ABME had properties that promoted cell survival.

CD34+ SPC = test: lineage commitment: HCFA with CD34+ SPC, count of mature blood cells after 14 days
Experimental: The mesenchyme cells (5×10^4 cells per well in a 24 well dish) were grown in IMDM plus 20% fetal bovine serum until they were nearly confluent. The medium was removed and was washed 2× with PBS. Two different ABME were prepared by using two biological hematomodulators (TGFβ1 10 ngml^−1, bFGF 10 ngml^−1, 18 hours) separately. The ABME formed was washed 2× with PBS and was covered with 0.2 ml of a suspension of CD34^+ SPC cells (10^5 ml−1) for 1 hour at 37° C. All the cells of the dish were then harvested after washing and were used in a HCFA. After 14 days, the mature blood cells formed were harvested and an aliquot of the suspension was examined under the microscope to identify and count the mature lymphoid and myeloid cells.
The mesenchyme cells (5×10^4 cells per well in a 24 well dish) were grown in IMDM plus 20% fetal bovine serum until they were nearly confluent. The medium was removed and was washed 2× with PBS. The cells in one well were treated with a DiBromo derivative of the Calcium ion chelator BAPTA (5 micromolar) for one hour whereas another well received only the medium without the BAPTA derivative. After 1 hour of incubation at 37° C., TGFβ1 was added to both the wells (10 ng ml−1) and the incubation was continued for a further period of 18 hours. The ABME formed in both wells were washed and were used for HCFA using CD34^+ SPC. After 14 days the mature blood cells were harvested and were quantitated for the cells of erythroid and myeloid lineage.

[1] = test system: mesenchymal cells (ABME) with MNC; test: quantitative hematopoietic colony formation assay for ABME (HCFA-ABME): MNC with hematomodulator-contacted mesenchymal cells
Excerpt: As described above, the medium for blood cell formation employed may be IMDM with 20% serum and supplemented with interleukins such as IL-lbeta, IL-3, and IL-6, stem cell factor, lineage specific growth factors such as erythropoietin and GM-CSF, G-CSF; and methyl cellulose to the extent of 0.8%, the culture is maintained for 12-14 days under the culture conditions whereby blood cell colonies grow well or form colonies and clearly the growth is visible/distinguishable for further analysis and use. An assay designed in a similar manner to assess quantitative nature of ABME function is referred hereafter as ‘quantitative hematopoietic colony formation assay for ABME (HCFA-ABME)’.
Several experiments were conducted to determine that mesenchymal cells exert direct influence on SPC cell-fate. In one set of experiments, mesenchymal cells were cultured separately and nearly 50,000 of them were exposed to a typical HCFA medium comprising 0.8% methyl cellulose in IMDM and 20-30% serum along with excess amounts of various purified and human specific cytokines and hematopoietic colony stimulating growth factors (from Stem cell Technologies, […], Canada). More specifically, the quantities of hematopoietic growth factors used routinely in HCFA were, 2 International Units per milliliter (2 I.U.ml^−1) of Erythropietin (EPO), 50 nanogram per milliliter (50 ng.ml^−1) of Stem Cell Factor (SCF) and 20 nanogram per milliliter (20 ng/ml^−1) each of Granulocyte-Macrophage-Colony Stimulating Factor (GM-CSF), Granulocyte-Colony Stimulating Factor (G-CSF), Interleukin-1 beta (IL-1β), Interleukin-3 (IL-3) and Interleukin-6 (IL-6) {all growth factors and cytokines are from Stem cell Technologies, Vancouver, Canada,}.
In another set of experiments, 50,000 of the same mesenchymal cells were first mixed with nearly 100,000 MNC, held at 37° C. for at least 30 minutes and were processed for colony formation assays. In several experiments, a consistent improvement in the number and cellularity of the hematopoietic colonies was seen when both these two cell types were mixed compared to a reference where only the cells of MNC were used. The increase was ranging from 1.5 to 10-fold. Thus, the enhancement in colony formation obtained with the use of only mesenchymal cells was highly variable and unpredictable among samples. The fact that hematopoietic colonies formed in increased numbers and cellularity only when MNC and mesenchymal cells were processed together is evidence of a new environment created by the mesenchymal cells in which the SPC present in the MNC were more productive. This increase results in activation of the pre-existing but quiescent SPC, formation of new SPC due to self-renewal, and a combination of both factors.
In order to create ABME, the mesenchymal cells were covered with the contacting medium comprising hematomodulators contained in IMDM with 20% human serum or fetal bovine serum for a desirable period (range 8-24 hours) and removed. The contacted cells were then washed 2 times using the contacting medium (IMDM +20% FCS) without hematomodulators and used as such or after harvesting the mesenchymal cells, which now represent the composition of in vitro ABME. Optionally, ABME cells can be configured on supports that will distribute them in two or more dimensions for better results. A requisite number of MNC/SPC and cells of the ABME are taken and kept together for a suitable duration (range 0.5 to 6 hours) after which they were processed for in vitro hematopoietic colony formation assays or hematopoiesis.
Thus, the inventors undertook 4 sets of experiments: (a) wherein mononuclear cells were exposed to mesenchymal cells without any treatment; (b) wherein MNC were exposed to mesenchymal cells contacted with a biological agent [TGFβ1] […]

Compound: 1-Adamantaneacetyl-Cys*Gly-Arg-Gly-Asp-Ser-Pro-C(Cyclised between Cys*-Cys*) (GRGDSP; N-terminal 1-adamantaneacetyl-Cys, C-terminal Cys; cyclised Cys-Cys; printed: Gly-Arg-Gly-Asp-Ser-Pro-)
- hematopoietic colony numbers in presence of inhibitory peptide (αiib:β3 integrin; inhibitor present during SPC contact with ABME formed by activating peptide): colony numbers decreased in an inhibitor dose dependent manner

Compound: NC(=O)c1cccc(N)c1 [3 Amino Benzamide, reference compound]
- colony/blood cell formation after priming SPC (SPC): improved colony/blood cell formation
- number of hematopoietic colonies formed from treated SPC (SPC; SPC treated to inhibit Poly(ADP-ribose) Polymerase, FIG. 9): synergistically increasing the number of hematopoietic colonies formed

Compound: O=C(O)CN(CC(=O)O)c1ccc(Br)cc1OCCOc1cc(Br)ccc1N(CC(=O)O)CC(=O)O [DiBromo BAPTA, DiBromo derivative of Ca^++ chelator BAPTA, reference compound]
- proportion of myeloid and erythroid cells (CD34+ SPC; 5 micromolar for one hour, then TGFβ1 10 ng ml-1 18 hours, vs TGFβ1 alone, FIG. 8b): significant difference in the proportion of myeloid and erythroid cell population

Compound: CC(C)[C@H]1C(=O)N[C@H](CO)Cc2c[nH]c3cccc(c23)N1C [chemical agent 1, (—) Indolactam V, reference compound]
- colonies of cells relative to (A) ([1]; MNC exposed to mesenchymal cells contacted with chemical agent, (A) = untreated mesenchymal cells): at least 4 times

Compound: Biotin-Ser-Gly-Ser-Gly-Cys*-Asn-Pro-Arg-Gly-Asp (Tyr-OMe)Arg-Cys*Lys (cyclised between C*-C*)
- hematopoietic colonies formed by ABME (activating peptide) (αiib:β3 integrin; 10 microgram ml^-1, 18 hours, CD34+ SPC 1 hour, HCFA 12-14 days): significantly more number of hematopoietic colonies

Compound: HuFGF-2
- efficiency of ABME created ([1]; 1-25 nano gram.ml^-1, mesenchymal cells contacted 8-24 hours): equally efficient ABME
- colony formation along lineages GEMM, BFU-E and GM ([1]; lineage specific colony formation assay, FIG. 3A, vs control without biological agent): uniformly stimulated
- potency in creating ABME from mesenchymal cells ([1]; used separately): nearly equipotent
- mature lymphoid and myeloid cells formed (CD34+ SPC; 10 ngml^-1, 18 hours, HCFA 14 days, FIG. 8a): more of lymphoid cells were produced

Compound: IGF-1: priming agent activating IGF-I receptor signals
- colony/blood cell formation after priming SPC (SPC): improved colony/blood cell formation

Compound: IGF-II: priming agent, Mannose6-phosphate/IGF-II receptor
- colony/blood cell formation after priming SPC (SPC): improved colony/blood cell formation

Compound: Latency Associated peptide of human TGF beta1.
- colony/blood cell formation after priming SPC (SPC): improved colony/blood cell formation
